This passage reports GI50 and TGI results from PubChem BioAssay (NCI).

Test systems include HCC-2998 colon; DU-145 prostate; MDA-MB-435; UO-31 renal; LOX IMVI melanoma; SF-539 CNS; A549 NSCLC; HCT-15 colon.
What all share (experiment): DTP human tumour cell line panel, 48 h

The structures appear in SMILES notation. Values joined by “and” are separate entries in the source; they are usually repeats but may differ in a detail not shown here. Equal entries are not always repeated.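 The compound was tested at five concentrations on cells cultured in 96-well plates, with a 48-hour exposure period. At the GI50, growth is halved. Definition used: TGI = concentration required for complete inhibition of growth.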

On to `COc1ccc2c(c1)C(=O)c1c-2c(NCCN(C)C)nc2ccccc12`, for which the GI50 is 2.52 µM in the assay on HCC-2998 colon; 2.95 µM in the assay on DU-145 prostate; 5.06 µM in the assay with MDA-MB-435; 9.98 µM in the assay with UO-31 renal; 2.01 µM in the assay on LOX IMVI melanoma; 12.4 µM in the assay on SF-539 CNS. For the same compound, the GI50 was 0.946 µM with A549 NSCLC and 2.72 µM in the assay on HCT-15 colon. Moreover, the TGI in the assay on HCC-2998 colon came to 13.4 µM; with DU-145 prostate, 17.5 µM; with MDA-MB-435, 20.4 µM; in the assay on UO-31 renal, 22 µM; in the assay on LOX IMVI melanoma it was 11.6 µM; in the assay on SF-539 CNS, 25.2 µM. The total growth inhibition concentration (TGI) was determined as 4.49 µM in the assay with A549 NSCLC and 16.6 µM with HCT-15 colon.
For `Cc1nc2sc(C(=O)Nc3cccc(Br)c3)c(N)c2cc1C(O)c1ccccc1` (centres undefined), the GI50 in the assay with HCC-2998 colon was 2.4 µM; in the assay on DU-145 prostate, 0.672 µM; in the assay on MDA-MB-435 it was 0.199 µM; with UO-31 renal, 1.82 µM; with LOX IMVI melanoma it was 0.731 µM; in the assay with SF-539 CNS, 0.558 µM. Besides, the GI50 in the assay with A549 NSCLC is 0.9 µM; with HCT-15 colon it was 0.403 µM. Moreover, the TGI in the assay on HCC-2998 colon was found to be 12.1 µM; with DU-145 prostate it was 13.9 µM; with MDA-MB-435, 0.449 µM; in the assay on UO-31 renal, 16.5 µM; with LOX IMVI melanoma, 22.9 µM; in the assay on SF-539 CNS, 5.4 µM. For the same compound, the TGI with A549 NSCLC is above 71.3 µM; in the assay on HCT-15 colon, 17.3 µM.
For `CN1CCN(CC(=O)N2c3cccc4cccc(c34)N(C(=O)CN3CCN(C)CC3)C2c2cn(-c3ccccc3)nc2-c2cccc([N+](=O)[O-])c2)CC1`, the GI50 in the assay with HCC-2998 colon is 1.54 µM; in the assay with DU-145 prostate, 3.27 µM; with MDA-MB-435 it was 1.98 µM; with UO-31 renal it was 1.32 µM; with LOX IMVI melanoma, 1.74 µM; in the assay with SF-539 CNS, 1.69 µM. Moreover, the GI50 is 3.21 µM in the assay with A549 NSCLC and 1.98 µM with HCT-15 colon. The TGI with HCC-2998 colon turned out to be 3.01 µM; in the assay on DU-145 prostate, 10.4 µM; in the assay on MDA-MB-435, 3.93 µM; with UO-31 renal it was 2.75 µM; with LOX IMVI melanoma it was 3.22 µM; with SF-539 CNS it was 3.19 µM. In addition, the TGI in the assay on A549 NSCLC is 13.2 µM; with HCT-15 colon it was 4.06 µM.
On to `Oc1c(CN2CCN(c3ccccc3F)CC2)cc(Br)c2cccnc12`, for which the GI50 in the assay with HCC-2998 colon is 2.87 µM; in the assay with DU-145 prostate, 1.71 µM; in the assay on MDA-MB-435, 1.31 µM; in the assay with UO-31 renal, 0.259 µM; in the assay on LOX IMVI melanoma, 0.676 µM; in the assay on SF-539 CNS, 1.02 µM. Besides, the GI50 was 0.546 µM in the assay on A549 NSCLC and 0.143 µM in the assay on HCT-15 colon. In addition, the TGI was 15.1 µM in the assay on HCC-2998 colon; 17.7 µM in the assay on DU-145 prostate; above 100 µM in the assay on MDA-MB-435; 3.58 µM in the assay on UO-31 renal; 10.3 µM in the assay on LOX IMVI melanoma; 5.6 µM with SF-539 CNS. Besides, the figures for the TGI in the assay on A549 NSCLC and in the assay with HCT-15 colon were 13 µM and above 100 µM, respectively.
For the compound `Cc1ccc(C2=NN(c3ccc(S(N)(=O)=O)cc3)C(c3cn(-c4ccccc4)nc3-c3ccccc3)C2)cc1` (centres undefined), the GI50 in the assay on HCC-2998 colon is 13.8 µM; in the assay on DU-145 prostate, 67.9 µM; in the assay on MDA-MB-435, 10 µM; in the assay with UO-31 renal it was 5.38 µM; with LOX IMVI melanoma, 24.9 µM; in the assay with SF-539 CNS, above 100 µM. The values for the GI50 in the assay with A549 NSCLC and in the assay with HCT-15 colon were 6.75 µM and 7.53 µM, respectively. For the same compound, the TGI in the assay with HCC-2998 colon, with DU-145 prostate, in the assay on MDA-MB-435, with UO-31 renal, in the assay with LOX IMVI melanoma and with SF-539 CNS was above 100 µM each time. Further, the TGI in the assay on A549 NSCLC and with HCT-15 colon was above 100 µM throughout.
For `O=C(NCCCCCCNC(=O)OCc1ccc2c(Cl)cc(Cl)c(O)c2n1)OCc1ccc2c(Cl)cc(Cl)c(O)c2n1`, the GI50 in the assay on HCC-2998 colon is 1.68 µM; with DU-145 prostate it was 1.03 µM; in the assay with MDA-MB-435 it was 0.443 µM; in the assay with UO-31 renal, 0.619 µM; with LOX IMVI melanoma, 0.325 µM; in the assay on SF-539 CNS, 0.468 µM. For the same compound, the GI50 was 1.55 µM in the assay with A549 NSCLC and 0.317 µM in the assay on HCT-15 colon. Besides, the TGI is 3.22 µM with HCC-2998 colon; 2.24 µM in the assay on DU-145 prostate; 1.71 µM with MDA-MB-435; 1.95 µM with UO-31 renal; 1.1 µM with LOX IMVI melanoma; 1.63 µM with SF-539 CNS. The TGI is 3.62 µM in the assay on A549 NSCLC and 1.02 µM with HCT-15 colon.
In the case of `CCN(CC)CC[n+]1cc2cc(OC)c(OC)cc2c2ccc3cc4c(cc3c21)OCO4`, the GI50 in the assay on HCC-2998 colon was 0.725 µM; in the assay on DU-145 prostate it was 0.337 µM; in the assay with MDA-MB-435 it was 0.675 µM; in the assay with UO-31 renal it was 2.61 µM; in the assay on LOX IMVI melanoma it was 0.355 µM; in the assay with SF-539 CNS it was 1.12 µM. The GI50 with A549 NSCLC is 0.376 µM; in the assay with HCT-15 colon, 1.68 µM. Besides, the TGI is 2.15 µM in the assay with HCC-2998 colon; 1.96 µM in the assay on DU-145 prostate; 2.14 µM in the assay with MDA-MB-435; 8.6 µM in the assay on UO-31 renal; 0.996 µM in the assay with LOX IMVI melanoma; 3.16 µM in the assay on SF-539 CNS. Moreover, the TGI turned out to be 1.84 µM in the assay on A549 NSCLC and 4.51 µM with HCT-15 colon.
Take `CNC(=O)CN1CCC(Oc2cc3c(Nc4cccc(Cl)c4F)ncnc3cc2OC)CC1`: the GI50 is 15.9 µM and > 7.7 µM in the assay on HCC-2998 colon; 3.64 µM and 2.19 µM with DU-145 prostate; 21.5 µM and > 8.41 µM in the assay on MDA-MB-435; 0.177 µM and 0.427 µM in the assay with UO-31 renal; 8.12 µM and > 5.06 µM with LOX IMVI melanoma; 13.5 µM and > 5.94 µM in the assay on SF-539 CNS. In addition, the GI50 was 5.66 µM and > 4.69 µM in the assay on A549 NSCLC; 11.2 µM and > 5.17 µM in the assay with HCT-15 colon. For the same compound, the TGI was 34.6 µM and > 10 µM in the assay on HCC-2998 colon; above 56 µM with DU-145 prostate; above 62.4 µM in the assay with MDA-MB-435; 15.2 µM and > 10 µM in the assay with UO-31 renal; 20.9 µM and > 10 µM in the assay with LOX IMVI melanoma; 33.4 µM and > 10 µM in the assay with SF-539 CNS. In addition, the TGI in the assay with A549 NSCLC is 22.9 µM and > 10 µM; in the assay with HCT-15 colon it was 67.6 µM and > 10 µM.
On to `C[C@@H]1OCC2(CCN(c3cnc(Sc4ccnc(N)c4Cl)c(N)n3)CC2)[C@@H]1N`, for which the GI50 in the assay on HCC-2998 colon was above 100 µM; in the assay with DU-145 prostate, above 67.8 µM; in the assay on MDA-MB-435, above 100 µM; in the assay on UO-31 renal, 0.926 µM; in the assay on LOX IMVI melanoma, above 100 µM; in the assay on SF-539 CNS, 24.2 µM. Also, the GI50 in the assay on A549 NSCLC and with HCT-15 colon was above 100 µM each time. Moreover, the TGI in the assay with HCC-2998 colon, in the assay with DU-145 prostate, in the assay with MDA-MB-435, with UO-31 renal, in the assay with LOX IMVI melanoma and in the assay on SF-539 CNS was above 100 µM throughout. Besides, the TGI in the assay on A549 NSCLC and with HCT-15 colon was above 100 µM in each case.

Usually GI50 stands for the concentration at which growth is held to half of that of the control. As usually defined, the TGI is the concentration at which net growth stops. The low end stands for more potent growth arrest, the high end for less potent growth arrest.
